≈ marks a conversion by molar mass, not a printed value. Where two headings read alike, the source gives them in different places.
Tests used:
Format in all cases: cell-based
Hs578T = experiment: Inhibition of tumor cell proliferation in vitro (SRB total protein); conditions: Homo sapiens, Hs-578T
Method: (§1) For a typical screening experiment, cells are inoculated into 96 well microtiter plates in 100 μl at plating densities ranging from 5,000 to 40,000 cells/well depending on the doubling time of individual cell lines. After cell inoculation, the microtiter plates are incubated at 37° C., 5% or 10% CO2—depending on the cell line and media—95% air and 100% relative humidity for 24 h prior to addition of experimental drugs. After 24 h, two plates of each cell line are fixed in situ with TCA, to represent a measurement of the cell population for each cell line at the time of drug addition. Following drug addition, the plates are incubated for an additional 48 h at 37° C., 5%/10% CO2, 95% air, and 100% relative humidity. For adherent cells, the assay is terminated by the addition of cold TCA. Cells are fixed in situ by the gentle addition of 50 μl of cold 50% (w/v) TCA (final concentration, 10% TCA) and incubated for 60 minutes at 4° C. The supernatant is discarded, and the plates are washed five times with tap water and air-dried. Sulforhodamine B (SRB) solution (10011) at 0.4% (w/v) in 1% acetic acid is added to each well, and plates are incubated for 10 minutes at room temperature. After staining, unbound dye is removed by washing five times with 1% acetic acid and the plates are air-dried. Bound stain is subsequently solubilized with 10 mM trizma base, and the absorbance is read on an automated plate reader at a wavelength of 515 nm. For suspension cells, the methodology is the same except that the assay is terminated by fixing settled cells at the bottom of the wells by gently adding 50 μl of 80% TCA (final concentration, 16% TCA). Using the seven absorbance measurements [time zero, control growth, and test growth in the presence of drug at the five concentration levels], the percentage growth is calculated at each of the drug concentrations levels.
(§2) Brefeldin A was tested by the NCI for inhibition of tumor cell proliferation in the 60-cell screen. The NCI 60-cell screen was performed essentially as described for FIG. 9. Data available from the NCI database for Brefeldin A was compared with more recent AVP 893 data. […] Several tumor cell lines were cultured in the presence of either AVP 893 or Brefeldin A for about 72 hours before assessing proliferation response by measuring total protein (SRB), as described for FIG. 9. The results of the head-to-head comparisons performed in-house also show substantial variation in the relative proliferative responses of cells to Brefeldin A and AVP 893 in vitro (TABLE 3).

MOLT-4 = experiment: as above; conditions: Homo sapiens
Method: as §1, §2

NCI H-460 = experiment: as above; conditions: Homo sapiens
Method: as §1, §2

OVCAR3 = experiment: as above; conditions: Homo sapiens
Method: as §1, §2

nicastrin = experiment: Nicastrin expression/maturation by Western blotting
Method: The culture medium was removed by vacuuming (for attached cells) or by low speed centrifugation (for suspension cells) for 5-7 minutes at room temperature. The cells were wasedh twith PBS, spun at 1200 rpm and the cell pellets were kept on ice. 300 μl/2.0×10^7 cells of ice cold lysis buffer was added with freshly added protease inhibitors. Cell pellets were gently resuspended and incubated on ice for at least 30 min, vortexed a few times during incubation. Cell lysate was spun at 14,000 rpm for 2-5 min at 4° C. The supernatant was transferred to a new microfuge tube and the pellet was discarded. An aliquot of sample was mixed with an equal volume of 2× sample buffer (InVitrogen), and stored at −80° C. Protein concentration was determined by using “BCA protein assay reagent kit” from Pierce.
Protein samples (in sample buffer) were boiled for 1-3 minutes and put on ice. Same amount of protein were loaded on the NuPage gel (InVitrogen). […]
To further examine the putative protein trafficking effects of AVP 893, other proteins in this pathway were tested in vitro in B16 and other cell lines. […] Other cell lines were tested for their expression of GS28 and nicastrin and found to respond similarly to drug, although quantitative differences were evident. […]

[1] = column Avanir, read-out: IC50 (ng/ml), Avanir
[2] = column NCI, read-out: IC50 (ng/ml), NCI
[3] = in-house head-to-head, about 72 hours, SRB, read-out: IC50

For `O=C(Nc1ccc(-c2nc3cc(NC(=O)C4CCCCC4)ccc3[nH]2)cc1)C1CCCCC1` [AVP 893], which IC50 (Hs578T; [1]) is on record?
Its IC50 is 2 ng/mL (≈ 4.5 nM).

And the IC50 (Hs578T; [2])?
The IC50 was under 10 ng/mL.

What about the IC50 (Hs578T; [3]) of the same compound?
The IC50 was under 1 ng/mL.

What about the IC50 (MOLT-4; [1]) of the same compound?
The IC50 was 0.001 ng/mL (≈ 0.00225 nM).

And the IC50 (MOLT-4; [2])?
Its IC50 is under 10 ng/mL.

And the IC50 (MOLT-4; [3])?
The IC50 was 30 ng/mL (≈ 67.5 nM).

And the IC50 (NCI H-460; NCI-H460, column Avanir, read-out: IC50 (ng/ml), Avanir)?
Its IC50 is over 2000 ng/mL.

What about the IC50 (NCI H-460; NCI-H460, column NCI, read-out: IC50 (ng/ml), NCI) of the same compound?
Its IC50 is 400 ng/mL (≈ 900 nM).

What about the IC50 (NCI H-460; NCI-H460, in-house head-to-head, about 72 hours, SRB, read-out: IC50) of the same compound?
Its IC50 is over 3000 ng/mL.

What about the IC50 (OVCAR3; OVCAR-3, column Avanir, read-out: IC50 (ng/ml), Avanir) of the same compound?
Its IC50 is 200 ng/mL (≈ 450 nM).

And the IC50 (OVCAR3; OVCAR-3, column NCI, read-out: IC50 (ng/ml), NCI)?
Its IC50 is 1000 ng/mL (≈ 2250 nM).

What about the “IC50 for mature nicastrin expression” value (nicastrin; 3T3 cells, overnight) of the same compound?
Its value is 10 and 100 ng/ml.

What about the “levels of mature nicastrin” value (nicastrin; 3T3 fibroblast cell line) of the same compound?
The value was “virtually eliminated”.

— patent publication US20050256179A1, “Selective pharmacologic inhibition of protein trafficking and related methods of treating human diseases” (priority 2003, published 2005)
